Assay results published in patent US5877202A, “Indole derivatives useful to treat estrogen-related neoplasms and disorders” (priority 1996, dated 1999).

Assays:
MCF-7 estrogen receptor = target: T1, MCF-7 estrogen receptor (Homo sapiens, UniProt P03372); assay: Competitive binding assay, Relative Binding Affinities on binding of estradiol to MCF-7 estrogen receptor
T1 construct: estrogen receptor extracted from MCF-7 human breast tumor cells; endogenous in cells; host or cells: MCF-7 human breast cancer cells (nuclear extract, cytosol or whole cell extract)
T1 sequence (P03372 1-595): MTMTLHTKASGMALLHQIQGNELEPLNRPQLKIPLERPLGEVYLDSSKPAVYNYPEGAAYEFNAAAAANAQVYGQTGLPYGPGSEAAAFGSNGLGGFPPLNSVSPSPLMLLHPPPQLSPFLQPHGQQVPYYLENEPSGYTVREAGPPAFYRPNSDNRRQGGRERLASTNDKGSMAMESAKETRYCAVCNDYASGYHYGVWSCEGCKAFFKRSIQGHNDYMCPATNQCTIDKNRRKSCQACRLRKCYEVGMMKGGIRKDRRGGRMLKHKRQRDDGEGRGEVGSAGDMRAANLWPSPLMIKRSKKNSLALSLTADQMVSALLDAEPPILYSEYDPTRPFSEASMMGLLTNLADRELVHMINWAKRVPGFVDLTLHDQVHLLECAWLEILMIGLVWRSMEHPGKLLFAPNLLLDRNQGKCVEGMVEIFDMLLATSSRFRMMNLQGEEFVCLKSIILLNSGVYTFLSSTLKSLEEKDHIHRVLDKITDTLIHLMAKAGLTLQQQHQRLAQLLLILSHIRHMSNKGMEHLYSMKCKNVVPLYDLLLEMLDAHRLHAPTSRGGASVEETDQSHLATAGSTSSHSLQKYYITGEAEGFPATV
Description: Briefly, RBAs are determined from competitive binding assays with several concentrations of estradiol (E2) with and without test compound. After 16-18 hours of incubation at 4 degrees C., unbound [^3 H] E2 is separated from ER-bound [^3 H] E2. The IC50 is determined and the RBA is calculated as: […]

[1] = test system: tamoxifen-resistant LY-2 cells; assay: Inhibition of growth of tamoxifen-resistant LY-2 cells; format: cell-based; settings: medium with 0.001 mg/ml insulin
GAPDH mRNA = GAPDH mRNA levels in treated MCF-7 human breast tumor cells (positive control probe); format: cell-based; settings: 30 μM, 24 hr;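 further: Phosphoimager intensity of radioactive mRNA bands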
Description: After treatment with 30 μM drug for 24 hr, total RNA is isolated according to the guanidinium isothiocyanate method using an RNA preparation kit from 5 Prime-3 Prime, Inc., following the manufacturer's instructions. The RNA is separated by formaldehyde gel electrophoresis and transferred to a nylon membrane.

[2] = test system: MCF-7 human breast tumor cells; assay: Clonigenic assay for MCF-7 human breast tumor cells; format: cell-based; settings: for Colonies ± S.D.: 24 hours treatment, grown 22 days
Description: MCF-7 cells (10^7) are added to 100 mm tissue culture dishes, allowed to adhere for 24 hours and then treated with either MDL 101,906 or ICI 164,384 for 24 hours. The cells are removed from the dishes with trypsin/EDTA, and washed twice by centrifugation. The cells were counted and 500 cells from each treatment group are added to triplicate wells of 6-well culture dishes. The cells are grown for 22 days. Colonies 1 mm diameter or greater are counted.

CCCCN(C)C(=O)CCCCCCCNC(=O)Cc1c(C)n(C(=O)c2ccc(Cl)cc2)c2ccc(O)cc12 [MDL 101,906, 8-[[5-Hydroxy-1-(4-chlorobenzoyl)-2-methyl-1H-indol-3-yl]-acetylamino]-octanoic acid methyl-butyl-amide]
inhibition of estradiol binding to MCF-7 ER (MCF-7 estrogen receptor; doses of 100 or 200 nM): did not significantly inhibit
inhibition of estradiol binding to MCF-7 ER (MCF-7 estrogen receptor; typically, at doses of 100 or 200 nM): less than 10%
IC50 [1]: 4.7 µM
GAPDH mRNA band intensity (GAPDH mRNA; replicate 1): 5,227
GAPDH mRNA band intensity (GAPDH mRNA; replicate 2): 5,077
Colonies ± S.D. ([2]; 10 μM): 30 ± 10
Colonies ± S.D. ([2]; 20 μM): 27 ± 5
Colonies ± S.D. ([2]; 50 μM): 12 ± 2
activity at 10 µM ([2]; Homo sapiens, MCF7, 528 h, 10 μM, read-out: Colonies, % Control): 91%
activity at 20 µM ([2]; Homo sapiens, MCF7, 528 h, 20 μM, read-out: Colonies, % Control): 82%
activity at 50 µM ([2]; Homo sapiens, MCF7, 528 h, 50 μM, read-out: Colonies, % Control): 36%
